Read-outs that look alike come from different tables or passages of the source. Values belong to the molecule of their own block, whether it stands above or below them.
Legend:
MscL mutant G22C [1] = molecular target: T1, MscL mutant G22C (Escherichia coli, UniProt P0A742, G22C); assay type: biochemical, E. coli; conditions: for kinetics of calcein release compared to MTSET: 2.5 mM MTSEA, 10 mM MTSES
T1 construct: expressed in transfected cells
Description: Samples were prepared, and calcein efflux was monitored as described in examples 1 and 2A.
The membrane reconstitution mixture was incubated for 30 min. at room temperature and 40 mg of detergent-absorbing Bio-Beads SM-2 (Bio-Rad, Inc.) was added and incubated at 4° C. for 30 min. Next, 400 mg Bio-Beads were added and incubated overnight at 4° C. All steps were performed under mild agitation. Samples were prepared for calcein efflux assay as described in example 1.

MscL mutant G22C [2] = molecular target: T1, MscL mutant G22C; assay type: biochemical, E. coli
Description: FIGS. 10A-10D. […] Pressure in the pipette, relative to atmospheric, is shown in the lower traces of FIGS. 10A and 10B, and recordings of the current through a cell attached patch of a spheroplast are shown in the upper traces of FIGS. 10A and 10B. […] Buffer: 200 mM KCl, 90 mM MgCl2, 110 mM CaCl2, 5 mM HEPES, pH 6.0. FIGS. 10C and 10D show the histograms of the conductivity preferences of FIGS. 10A and 10B, respectively.
FIGS. 14A-14D. […] 5 μl of G22C spheroplasts were incubated with IMI (2 mM final concentration) or with patch buffer overnight at 4° C. The next day, currents through cell-attached patches held at +20 mV were recorded for unlabeled (FIG. 14A) and labeled (FIG. 14B) proteins and histograms showing the conductance states of each recording are illustrated in FIG. 14C and FIG. 14D, respectively.
Expression, purification, membrane reconstitution, and patch clamp analysis were performed as described in Example 1 or as described below.
Giant spheroplasts were prepared as explained before (Blount, P. et al., Methods Enzymol. Vol. 294:458-482, 1999).

MscL mutant G22C [3] = molecular target: T1, MscL mutant G22C; test: FITC-insulin efflux from liposomes with MscL mutant G22C (filter assay); assay type: biochemical, E. coli; conditions: 1 mM MTSET; DOPC:DOPS 9:1 liposomes with MscL mutant G22C
Description: Insulin and fluorescein isothiocyanate (FITC) were obtained from Sigma (St. Louis, Mo., USA). Insulin (23 mg) was reacted with a four-fold molar ratio of FITC in 0.1 N borate buffer, pH 9.0, for 60 min. The pH was lowered to 7.5 with 0.1 N boric acid and the solution was extensively dialyzed, using a dialysis membrane with a molecular weight cut-off of 2,000 Da, for 96 hours against water at 4° C. with frequent water changes. Absorption spectra of the dialyzed sample were used to quantify the protein concentration and the stoichiometry of labeling. Concentrations of FITC and insulin were both 0.1 mM. The labeled insulin was encapsulated by three freeze-thaw cycles, followed by extrusion through a 400 nm polycarbonate membrane. The proteoliposomes containing labeled insulin were separated from free labeled insulin by using sephadex G-50 column chromatography equilibrated with 145 mM NaCl, 300 mM Sucrose, 25 mM Tris.HCl and 1 mM EDTA, pH 8.0.
Samples were taken at different time points and Triton was added as a control for maximum fluorescence (100%). Samples were filtered over a 450 nm Cellulose Nitrate filter (Schleicher & Schuell BA85). The filtrate of 2 ml was retained and the fluorescence of 200 I11 of each filtrate was monitored in an fl600 plate reader (Bio-Tek). All experiments were performed in triplicate.

MscL mutant G22C [4] = molecular target: T1, MscL mutant G22C; conditions: no tension applied (Yoshimura et al.); cited from earlier work
[5] = free compound
Description: The effect of drug formulation on the rate of drug release in vivo was tested in the rat by external counting of radioactivity. The model was based on liposomal formulations that remain at the subcutaneous site of administration with an encapsulated model drug which, when released, was rapidly removed from the subcutaneous site of injection and excreted into the urinary bladder.
Male Wistar rats were anaesthetized using iso-flurane O2/NO throughout the study. Liposome encapsulated MAG3 in a 0.5 ml volume was injected subcutaneously (in the neck) and accumulation of radioactivity in the urinary bladder was constantly monitored by external counting using a gamma-camera (window: 140 keV, 250 keV width, 1 min. time resolution). At the end of the study (after 40 min.), a 10 times higher dose of free MAG3 was administered subcutaneously or intravenously to measure the urinary excretion rates of those formulations.

[6] = humans; cited from earlier work
MscL = molecular target: T2, MscL (Escherichia coli, UniProt P0A742, G22C); assay type: biochemical, E. coli
T2 construct: made in house; host or cells: E. coli PB104

[7] = Urinary excretion of IOT after subcutaneous injection in conscious rats; assay type: in vivo, rat; conditions: free IOT
Description: DOPC/DOPS (90:10, mol/mol) and DOPC/DOPE liposomes (70:30, mol/mol) were tested.
Male Wistar rats remained conscious throughout the study. To increase the resolution time, the diuretic furosemide (10 mg/kg dose s.c.) was given in the morning, 7 hours before administration of the sample. Urine was collected automatically with a 1 hour resolution. The concentration of IOT in the urine was measured by HPLC.

[8] = rat; cited from earlier work
[9] = 1 mM MTSET, DOPC:DOPS 90:10 liposomes with MscL mutant G22C
[10] = DOPC:DOPS 90:10 liposomes with MscL mutant G22C

T1 sequence (P0A742 2-136 G22C): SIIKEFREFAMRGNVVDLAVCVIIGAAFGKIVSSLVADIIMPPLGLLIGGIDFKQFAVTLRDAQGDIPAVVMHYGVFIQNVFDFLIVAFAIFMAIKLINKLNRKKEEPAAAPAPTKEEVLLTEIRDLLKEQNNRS
T2 sequence (P0A742 2-136 G22C): as above

Molecule: C[N+](C)(C)CCSS(C)(=O)=O [MTSET, [2-(Trimethylammonium)ethyl]methanethiosulfonate]
encapsulated calcein released (MscL mutant G22C [1]; [9]): 80%
time for half of the MscL mediated efflux (MscL mutant G22C [1]; [9]): ≤ 7 s
calcein release upon addition (MscL mutant G22C [1]; DOPC:Cholesterol 80:20 liposomes with vs without MscL mutant G22C): effective release of calcein
effect of attachment on pressure sensitivity and gating (MscL mutant G22C [2]; attached to MscL mutant G22C in spheroplasts): spontaneous gating of the channel
FITC-insulin efflux upon activation (MscL mutant G22C [3]): release of FITC-insulin
effect of attachment to the cysteine on gating under patch clamp (MscL mutant G22C [4]): gate spontaneously

Molecule: sodium (2-sulfonatoethyl) methane thiosulfonate [MTSES]
kinetics of calcein release compared to MTSET (MscL mutant G22C [1]; [10]): significantly slower
effect of attachment to the cysteine on gating under patch clamp (MscL mutant G22C [4]): gate spontaneously

Molecule: mertiatide [MAG3]
time to 50% urinary excretion ([5]; intravenous): 3 min
time to 50% urinary excretion ([5]; subcutaneous): > 12 min
active tubular secretion [6]: 600 mL/min

Molecule: Br.BrCc1ccncc1 [BP, 4-(bromomethyl)pyridine hydrobromide]
channel behavior of labeled MscL mutant G22C (MscL; pH 5.2, +20 mV): prefers not to open completely but only to subconducting states and the dwell times get shorter
channel behavior of labeled MscL mutant G22C (MscL; pH 7.2, +20 mV): behaves as an unlabeled channel

first phase urinary excretion [7]: completed in the first couple of hours
Molecule: CNC(=O)c1c(I)c(NC(C)=O)c(I)c(C(=O)O)c1I [IOT, Iodo-thalamate]
excretion via glomerular filtration [8]: 1 ml.min^−1.100 g rat

Molecule: 2-aminoethyl methanethiosulfonate [MTSEA]
kinetics of calcein release compared to MTSET (MscL mutant G22C [1]; [10]): significantly slower
effect of attachment to the cysteine on gating under patch clamp (MscL mutant G22C [4]): gate spontaneously

Molecule: COC(=O)C(I)Cc1cnc[nH]1 (stereo not shown) [IMI, methyl 2-iodo-3-(5-imidazolyl)propanoate]
channel state in calcein efflux assays (MscL mutant G22C [1]; IMI labeled MscL mutant G22C, pH 7.0 and 8.0 (data not shown)): tendency to stay open at pH 7.0 and 8.0
ratio of tension sensitivity of MscL over MscS (MscL mutant G22C [2]; spheroplasts, pH 6): 1.48

Source: patent US20030118636A1, “Delivery of small hydrophilic molecules packaged into lipid vesicles” (priority 2001, published 2003)
